According to patent publication US20260256729A1, “CARBAMOYL PHEN[…] AS TAAR1 AGONISTS” (AXSOME THERAPEUTICS, INC., priority 2022, published 2026):
Read-outs that look alike come from different tables or passages of the source.

Experiments:
[1] = Binding assay panel for additional targets
[2] = system: ventral tegmental area (VTA) dopaminergic neurons; test: Firing frequency of VTA dopaminergic neurons in acute brain slices (electrophysiology); type: cell-based, mouse; settings: for firing frequency of VTA neurons: acute slices from male C57Bl6/J mice, current clamp; for reduction in firing frequency after pre-treatment with D2 receptor antagonist sulpiride: acute slices
Method: The firing frequency of ventral tegmental area (VTA) dopaminergic neurons (n=4-8 cells/experiment) in acute slice preparations was recorded using electrophysiology and analyzed. Brain slices (250 μm thickness) containing VTA from male C57Bl6/J mice were prepared using standard procedures. Slices were perfused with artificial cerebrospinal fluid (aCSF) and spontaneous action potentials were recorded from dopaminergic neurons in current clamp conditions using […] and pClamp10 (Axon Instruments; Revel, Proc. Natl. Acad. Sci. USA 108(20):8485-90 (2011)). […] In addition, the reduction in firing frequency by solriamfetol or TAAR1 agonist RO5256390 was antagonized by pre-treatment with the D2 receptor antagonist sulpiride (FIG. 3A-3B).

wild type mice = test: Open field locomotor activity, wild type mice; type: in vivo, mouse; settings: subcutaneous, solriamfetol 10, 30 or 100 mg/kg, amphetamine 2 mg/kg
Method: (§1) Open field locomotor activity was assessed using an automated Omnitech Digiscan (AccuScan Instruments, Columbus, OH).

[3] = system: dopamine transporter deficient (DAT-/-) mice; test: Open field locomotor activity, DAT-/- mice (hyperlocomotion); type: in vivo, mouse; settings: subcutaneous, solriamfetol 10, 30 or 100 mg/kg, amphetamine 2 mg/kg
Method: as §1

[4] = biological target: human dopamine transporter (hDAT) (Homo sapiens, UniProt Q01959); test: hDAT inhibition, in vitro binding and functional studies
Chain of human dopamine transporter (hDAT) (Q01959 whole entry): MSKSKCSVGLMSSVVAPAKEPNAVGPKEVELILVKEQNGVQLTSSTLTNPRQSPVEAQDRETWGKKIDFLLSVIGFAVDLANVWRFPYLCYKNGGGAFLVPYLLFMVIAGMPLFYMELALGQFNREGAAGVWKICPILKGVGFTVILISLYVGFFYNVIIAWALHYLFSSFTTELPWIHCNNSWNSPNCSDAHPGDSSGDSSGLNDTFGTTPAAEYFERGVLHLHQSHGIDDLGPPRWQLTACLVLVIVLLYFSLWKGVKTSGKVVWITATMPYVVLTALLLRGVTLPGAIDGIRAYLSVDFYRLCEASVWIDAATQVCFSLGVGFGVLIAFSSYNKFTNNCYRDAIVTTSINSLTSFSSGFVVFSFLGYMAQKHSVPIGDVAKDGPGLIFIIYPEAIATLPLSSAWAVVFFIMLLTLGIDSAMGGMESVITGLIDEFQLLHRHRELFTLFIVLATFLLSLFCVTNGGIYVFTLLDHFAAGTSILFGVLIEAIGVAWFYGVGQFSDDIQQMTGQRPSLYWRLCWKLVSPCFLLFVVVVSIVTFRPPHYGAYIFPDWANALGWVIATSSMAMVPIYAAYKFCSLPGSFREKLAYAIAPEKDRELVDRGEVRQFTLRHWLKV

[5] = biological target: T1, human norepinephrine transporter (hNET) (Homo sapiens, UniProt P23975); test: hNET inhibition, in vitro binding and functional studies
T1 sequence (P23975 whole entry): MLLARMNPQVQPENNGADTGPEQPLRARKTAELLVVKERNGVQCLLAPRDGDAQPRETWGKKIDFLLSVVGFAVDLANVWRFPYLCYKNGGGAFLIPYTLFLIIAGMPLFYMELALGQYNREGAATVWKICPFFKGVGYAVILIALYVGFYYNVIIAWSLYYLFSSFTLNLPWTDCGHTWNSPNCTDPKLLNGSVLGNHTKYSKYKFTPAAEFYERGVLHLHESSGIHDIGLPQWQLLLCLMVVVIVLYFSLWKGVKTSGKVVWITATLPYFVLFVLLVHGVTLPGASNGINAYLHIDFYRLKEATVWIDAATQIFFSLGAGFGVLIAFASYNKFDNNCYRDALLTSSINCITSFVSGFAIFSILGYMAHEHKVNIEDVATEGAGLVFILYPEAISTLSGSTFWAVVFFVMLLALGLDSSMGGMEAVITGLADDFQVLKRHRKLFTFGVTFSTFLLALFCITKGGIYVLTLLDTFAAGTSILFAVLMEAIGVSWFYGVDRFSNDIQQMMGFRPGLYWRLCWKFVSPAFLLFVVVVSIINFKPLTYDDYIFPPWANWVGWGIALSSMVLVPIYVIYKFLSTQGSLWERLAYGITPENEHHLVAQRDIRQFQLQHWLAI

[6] = biological target: T1, human norepinephrine transporter (hNET); parameters: host or cells: unnamed cell lines or membrane preparations; settings: data from published literature (footnote b); cited from earlier work

Row | Compound | firing frequency of VTA neurons [2] | reduction in firing frequency after pre-treatment with D2 receptor antagonist sulpiride [2] | locomotor activity (total distance traveled in 90 minutes) (wild type mice) | hyperlocomotion (total distance traveled in 90 minutes) [3] | IC50 [5] | further results
1 | NC(=O)OC[C@H](N)Cc1ccccc1 [Solriamfetol, (R)-2-amino-3-phenylpropyl carbamate] | inhibited firing frequency by VTA neurons in a dose-dependent manner | antagonized | did not increase locomotor activity | reduced hyperlocomotion | 14.4 µM | additional targets in binding assay panel [1]: no additional targets were identified; IC50 [4]: 3.21 µM
2 | NC(=O)C[S+]([O-])C(c1ccccc1)c1ccccc1 (centres unmarked) [Modafinil] | – | – | – | – | > 100 µM | –
3 | CCN(C[C@H]1COC(N)=N1)c1ccccc1 [ROS166017] | – | – | – | reduced hyperlocomotion | – | –
4 | CC(N)Cc1ccccc1 (centres unmarked) [amphetamine] | – | – | increase locomotor activity | reduced hyperlocomotion | – | –
5 | CC[C@@H](C[C@H]1COC(N)=N1)c1ccccc1 [RO5256390] | inhibited firing frequency by VTA neurons in a dose-dependent manner | antagonized | – | – | – | –
6 | (+)Methamphetamine | – | – | – | – | – | IC50 [6]: 0.0013 µM
